Assay results reported in ChEMBL document CHEMBL1629634, “Postantibiotic effect of tigecycline against 14 gram-positive organisms” (Antimicrob Agents Chemother, 2009).
≈ marks a conversion by molar mass, not a printed value.

What was measured:
Format in all cases: functional
Haemophilus influenzae [1] = assay: Antibacterial activity against amoxicillin, clavulanate-resistant Haemophilus influenzae expressing beta-lactamase assessed as post-antibiotic sub-MIC effect at 0.2 times MIC concentration pretreated with 6 times MIC concentration for 1 hr followed by 1:1000 dilution by viable plate count method
Escherichia coli [2] = assay: Antibacterial activity against Escherichia coli assessed as post-antibiotic sub-MIC effect at 0.2 times MIC concentration pretreated with 6 times MIC concentration for 1 hr followed by 1:1000 dilution by viable plate count method
Klebsiella pneumoniae [3] = assay: Antibacterial activity against Klebsiella pneumoniae assessed as post-antibiotic sub-MIC effect at 0.2 times MIC concentration pretreated with 10 times MIC concentration for 1 hr followed by 1:1000 dilution by viable plate count method
Acinetobacter baumannii [4] = assay: Antibacterial activity against Acinetobacter baumannii assessed as post-antibiotic sub-MIC effect at 0.2 times MIC concentration pretreated with 6 times MIC concentration for 1 hr followed by 1:1000 dilution by viable plate count method
Haemophilus influenzae [5] = assay: Antibacterial activity against amoxicillin, clavulanate-resistant Haemophilus influenzae expressing beta-lactamase assessed as sub-MIC effect at 0.3 times MIC concentration incubated for 1 hr by viable plate count method
Klebsiella pneumoniae [6] = assay: Antibacterial activity against Klebsiella pneumoniae assessed as sub-MIC effect at 0.3 times MIC concentration incubated for 1 hr by viable plate count method
Acinetobacter baumannii [7] = assay: Antibacterial activity against Acinetobacter baumannii assessed as sub-MIC effect at 0.3 times MIC concentration incubated for 1 hr by viable plate count method
Klebsiella pneumoniae [8] = assay: Antibacterial activity against Klebsiella pneumoniae assessed as post-antibiotic sub-MIC effect at 0.3 times MIC concentration pretreated with 2 times MIC concentration for 1 hr followed by 1:1000 dilution by viable plate count method
Acinetobacter baumannii [9] = assay: Antibacterial activity against Acinetobacter baumannii assessed as post-antibiotic sub-MIC effect at 0.3 times MIC concentration pretreated with 10 times MIC concentration for 1 hr followed by 1:1000 dilution by viable plate count method
Acinetobacter baumannii [10] = assay: Antibacterial activity against Acinetobacter baumannii assessed as post-antibiotic sub-MIC effect at 0.3 times MIC concentration pretreated with 6 times MIC concentration for 1 hr followed by 1:1000 dilution by viable plate count method
Enterococcus faecalis [11] = assay: Antibacterial activity against vancomycin-sensitive Enterococcus faecalis assessed as sub-MIC effect at 0.4 times MIC concentration incubated for 1 hr by viable plate count method
Enterococcus faecalis [12] = assay: Antibacterial activity against vancomycin-resistant Enterococcus faecalis assessed as sub-MIC effect at 0.4 times MIC concentration incubated for 1 hr by viable plate count method
Escherichia coli [13] = assay: Antibacterial activity against Escherichia coli assessed as sub-MIC effect at 0.4 times MIC concentration incubated for 1 hr by viable plate count method
Enterobacter cloacae = assay: Antibacterial activity against Enterobacter cloacae assessed as sub-MIC effect at 0.4 times MIC concentration incubated for 1 hr by viable plate count method
Acinetobacter baumannii [14] = assay: Antibacterial activity against Acinetobacter baumannii assessed as sub-MIC effect at 0.4 times MIC concentration incubated for 1 hr by viable plate count method
Acinetobacter baumannii [15] = assay: Antibacterial activity against multidrug-resistant Acinetobacter baumannii producing OXA-24 and OXA-51 beta-lactamases assessed as sub-MIC effect at 0.4 times MIC concentration incubated for 1 hr by viable plate count method
Streptococcus pneumoniae [16] = assay: Antibacterial activity against penicillin-susceptible Streptococcus pneumoniae assessed as post-antibiotic sub-MIC effect at 0.4 times MIC concentration pretreated with 10 times MIC concentration for 1 hr followed by 1:1000 dilution by viable plate count method
Enterococcus faecalis [17] = assay: Antibacterial activity against vancomycin-sensitive Enterococcus faecalis assessed as post-antibiotic sub-MIC effect at 0.4 times MIC concentration pretreated with 10 times MIC concentration for 1 hr followed by 1:1000 dilution by viable plate count method
Staphylococcus aureus [18] = assay: Antibacterial activity against vancomycin-intermediate methicillin-resistant Staphylococcus aureus assessed as post-antibiotic sub-MIC effect at 0.3 times MIC concentration pretreated with 6 times MIC concentration for 1 hr followed by 1:1000 dilution by viable plate count method
Enterococcus faecalis [19] = assay: Antibacterial activity against vancomycin-sensitive Enterococcus faecalis assessed as post-antibiotic sub-MIC effect at 0.3 times MIC concentration pretreated with 10 times MIC concentration for 1 hr followed by 1:1000 dilution by viable plate count method
Streptococcus pneumoniae [20] = assay: Antibacterial activity against penicillin-susceptible Streptococcus pneumoniae assessed as post-antibiotic sub-MIC effect at 0.2 times MIC concentration pretreated with 10 times MIC concentration for 1 hr followed by 1:1000 dilution by viable plate count method
Acinetobacter baumannii [21] = assay: Antibacterial activity against multidrug-resistant Acinetobacter baumannii producing OXA-24 and OXA-51 beta-lactamases assessed as sub-MIC effect at 0.2 times MIC concentration incubated for 1 hr by viable plate count method
Klebsiella pneumoniae [22] = assay: Antibacterial activity against Klebsiella pneumoniae assessed as sub-MIC effect at 0.2 times MIC concentration incubated for 1 hr by viable plate count method
Escherichia coli [23] = assay: Antibacterial activity against Escherichia coli assessed as sub-MIC effect at 0.2 times MIC concentration incubated for 1 hr by viable plate count method
Streptococcus pneumoniae [24] = assay: Antibacterial activity against penicillin-susceptible Streptococcus pneumoniae assessed as sub-MIC effect at 0.2 times MIC concentration incubated for 1 hr by viable plate count method
Acinetobacter baumannii [25] = assay: Antibacterial activity against multidrug-resistant Acinetobacter baumannii producing OXA-24 and OXA-51 beta-lactamases assessed as post antibiotic effect at 2 times MIC concentration incubated for 1 hr measured after 1:1000 dilution by viable plate count method
Acinetobacter baumannii [26] = assay: Antibacterial activity against Acinetobacter baumannii assessed as post antibiotic effect at 6 times MIC concentration incubated for 1 hr measured after 1:1000 dilution by viable plate count method
Acinetobacter baumannii [27] = assay: Antibacterial activity against multidrug-resistant Acinetobacter baumannii producing OXA-24 and OXA-51 beta-lactamases assessed as post antibiotic effect at 10 times MIC concentration incubated for 1 hr measured after 1:1000 dilution by viable plate count method
Escherichia coli [28] = assay: Antibacterial activity against Escherichia coli assessed as post antibiotic effect at 6 times MIC concentration incubated for 1 hr measured after 1:1000 dilution by viable plate count method
Acinetobacter baumannii [29] = assay: Antibacterial activity against multidrug-resistant Acinetobacter baumannii producing OXA-24 and OXA-51 beta-lactamases by macrodilution method
Escherichia coli [30] = assay: Antibacterial activity against Escherichia coli by macrodilution method
Staphylococcus aureus [31] = assay: Antibacterial activity against vancomycin-intermediate methicillin-resistant Staphylococcus aureus by macrodilution method
Staphylococcus aureus [32] = assay: Antibacterial activity against vancomycin-sensitive methicillin-resistant Staphylococcus aureus by macrodilution method
Klebsiella pneumoniae [33] = assay: Antibacterial activity against Klebsiella pneumoniae assessed as post-antibiotic sub-MIC effect at 0.4 times MIC concentration pretreated with 10 times MIC concentration for 1 hr followed by 1:1000 dilution by viable plate count method
Escherichia coli [34] = assay: Antibacterial activity against Escherichia coli assessed as post-antibiotic sub-MIC effect at 0.4 times MIC concentration pretreated with 10 times MIC concentration for 1 hr followed by 1:1000 dilution by viable plate count method

CN(C)c1cc(NC(=O)CNC(C)(C)C)c(O)c2c1C[C@H]1C[C@H]3[C@H](N(C)C)C(O)=C(C(N)=O)C(=O)[C@@]3(O)C(O)=C1C2=O [TIGECYCLINE]
PAE (Haemophilus influenzae [1]): 3.9 h
PAE (Escherichia coli [2]): 1.9 h
PAE (Klebsiella pneumoniae [3]): 1.9 h
PAE (Acinetobacter baumannii [4]): 5.2 h
PAE (Haemophilus influenzae [5]): 0.8 h
PAE (Klebsiella pneumoniae [6]): 0.4 h
PAE (Acinetobacter baumannii [7]): 1.5 h
PAE (Klebsiella pneumoniae [8]): 2 h
PAE (Acinetobacter baumannii [9]): 11.2 h
PAE (Acinetobacter baumannii [10]): 10.7 h
PAE (Enterococcus faecalis [11]): 1.8 h
PAE (Enterococcus faecalis [12]): 0.4 h
PAE (Escherichia coli [13]): 0.1 h
PAE (Enterobacter cloacae): 2.7 h
PAE (Acinetobacter baumannii [14]): 11.2 h
PAE (Acinetobacter baumannii [15]): 1.9 h
PAE (Streptococcus pneumoniae [16]): 9 h
PAE (Enterococcus faecalis [17]): 8.2 h
PAE (Staphylococcus aureus [18]): 9.8 h
PAE (Enterococcus faecalis [19]): 6.8 h
PAE (Streptococcus pneumoniae [20]): 5.9 h
PAE (Acinetobacter baumannii [21]): 0.4 h
PAE (Klebsiella pneumoniae [22]): 0.1 h
PAE (Escherichia coli [23]): 0 h
PAE (Streptococcus pneumoniae [24]): 0 h
PAE (Acinetobacter baumannii [25]): 0.7 h
PAE (Acinetobacter baumannii [26]): 1.8 h
PAE (Acinetobacter baumannii [27]): 1.3 h
PAE (Escherichia coli [28]): 1.9 h
MIC (Acinetobacter baumannii [29]): 2 µg/mL (≈ 3.41 µM)
MIC (Escherichia coli [30]): 0.12 µg/mL (≈ 0.205 µM)
MIC (Staphylococcus aureus [31]): 0.12 µg/mL (≈ 0.205 µM)
MIC (Staphylococcus aureus [32]): 0.12 µg/mL (≈ 0.205 µM)
PAE (Klebsiella pneumoniae [33]): 2.3 h
PAE (Escherichia coli [34]): 3.5 h
